Source: ChEMBL document CHEMBL5241120, “Insights into the medicinal chemistry of heterocycles integrated with a pyrazolo[1,5-a]pyrimidine scaffold” (RSC Med Chem, 2022)
Values after ≈ are worked out from the molar mass of the structure shown.

Tests used:
Bacillus subtilis [1] = assay: Antibacterial activity against Bacillus subtilis; assay type: functional
Escherichia coli [2] = assay: Antibacterial activity against Escherichia coli assessed as zone of inhibition; assay type: functional
Fusarium oxysporum = assay: Antifungal activity against Fusarium oxysporum; assay type: functional
Bacillus subtilis [3] = assay: Antibacterial activity against Bacillus subtilis assessed as zone of inhibition; assay type: functional
Staphylococcus aureus [4] = assay: Antibacterial activity against Staphylococcus aureus; assay type: functional
Pseudomonas aeruginosa [5] = assay: Antibacterial activity against Pseudomonas aeruginosa; assay type: functional
Staphylococcus aureus [6] = assay: Antibacterial activity against Staphylococcus aureus assessed as zone of inhibition; assay type: functional
Penicillium chrysogenum = assay: Antifungal activity against Penicillium chrysogenum; assay type: functional
Escherichia coli [7] = assay: Antibacterial activity against Escherichia coli; assay type: functional
Pseudomonas aeruginosa [8] = assay: Antibacterial activity against Pseudomonas aeruginosa assessed as zone of inhibition; assay type: functional
Mus musculus [9] = assay: Anxiolytic activity in mouse assessed as transfer number at 100 mg/kg, po; assay type: functional
Mus musculus [10] = assay: Anxiolytic activity in mouse assessed as time spent in light at 100 mg/kg, po; assay type: functional
Aspergillus clavatus = assay: Antifungal activity against Aspergillus clavatus assessed as zone of inhibition; assay type: functional
Candida tropicalis = assay: Antifungal activity against Candida tropicalis assessed as zone of inhibition; assay type: functional
Fusarium graminearum = assay: Antifungal activity against Gibberrella-zeave assessed as inhibition of fungal growth at 50 ug/ml; assay type: functional; design: scale not given: the % may be the effect or the level left; settings: dose 50 µg/ml
Alternaria solani = assay: Antifungal activity against Alternaria solani assessed as inhibition of fungal growth at 50 ug/ml; assay type: functional; design: scale not given: the % may be the effect or the level left; settings: dose 50 µg/ml
Phomopsis asparagi = assay: Antifungal activity against Phoma asparagi assessed as inhibition of fungal growth at 50 ug/ml; assay type: functional; design: scale not given: the % may be the effect or the level left; settings: dose 50 µg/ml
[11] = tested on: Brassica rapa subsp. oleifera; assay: Antifungal activity against Brassica campestris assessed as inhibition of fungal growth at 10 ug/ml by cup plate diffusion method; assay type: functional; design: scale not given: the % may be the effect or the level left; settings: dose 10 µg/ml
Mycosphaerella arachidis = assay: Antifungal activity against Cercospora arachidicola assessed as inhibition of fungal growth at 50 ug/ml; assay type: functional; design: scale not given: the % may be the effect or the level left; settings: dose 50 µg/ml
[12] = tested on: Brassica rapa subsp. oleifera; assay: Antifungal activity against Brassica campestris assessed as inhibition of fungal growth at 100 ug/ml by cup plate diffusion method; assay type: functional; design: scale not given: the % may be the effect or the level left; settings: dose 100 µg/ml
MCF7 = assay: Cytotoxicity against human MCF7 cells by MTT assay; assay type: functional, cell-based
SiHa = assay: Cytotoxicity against human SiHa cells by MTT assay; assay type: functional, cell-based
COLO 205 = assay: Cytotoxicity against human COLO 205 cells by MTT assay; assay type: functional, cell-based
A549 = assay: Cytotoxicity against human A549 cells by MTT assay; assay type: functional, cell-based
Mus musculus [13] = assay: Anxiolytic activity in mouse assessed as time spent in light at 3 mg/kg, po; assay type: functional
[14] = molecular target: Gamma-aminobutyric acid receptor subunit alpha-1 (Homo sapiens, UniProt P14867); assay: Binding affinity to GABAA alpha1 (unknown origin)
Chain of Gamma-aminobutyric acid receptor subunit alpha-1 (P14867 whole entry): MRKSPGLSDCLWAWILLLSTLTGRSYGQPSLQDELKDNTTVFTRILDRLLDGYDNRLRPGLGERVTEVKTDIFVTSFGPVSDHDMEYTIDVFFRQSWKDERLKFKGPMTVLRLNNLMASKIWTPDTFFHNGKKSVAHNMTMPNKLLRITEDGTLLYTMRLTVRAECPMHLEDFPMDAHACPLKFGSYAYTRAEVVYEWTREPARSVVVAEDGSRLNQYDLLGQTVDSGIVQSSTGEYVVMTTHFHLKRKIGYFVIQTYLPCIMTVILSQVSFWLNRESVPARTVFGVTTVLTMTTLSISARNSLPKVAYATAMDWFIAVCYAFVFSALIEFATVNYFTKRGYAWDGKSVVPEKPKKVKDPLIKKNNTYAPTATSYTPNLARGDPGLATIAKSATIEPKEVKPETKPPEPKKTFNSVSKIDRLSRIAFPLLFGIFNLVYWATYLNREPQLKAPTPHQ

Mus musculus [15] = assay: Anxiolytic activity in mouse assessed as transfer number at 1 mg/kg, po; assay type: functional
Mus musculus [16] = assay: Anxiolytic activity in mouse assessed as time spent in light at 1 mg/kg, po; assay type: functional
Mus musculus [17] = assay: Anxiolytic activity in mouse assessed as transfer number at 10 mg/kg, po; assay type: functional
Mus musculus [18] = assay: Anxiolytic activity in mouse assessed as transfer number at 3 mg/kg, po; assay type: functional
Mus musculus [19] = assay: Anxiolytic activity in mouse assessed as transfer number at 30 mg/kg, po; assay type: functional
Mus musculus [20] = assay: Anxiolytic activity in mouse assessed as time spent in light at 30 mg/kg, po; assay type: functional
Mus musculus [21] = assay: Anxiolytic activity in mouse assessed as time spent in light at 10 mg/kg, po; assay type: functional
Enterococcus faecalis = assay: Antibacterial activity against Enterococcus faecalis assessed as zone of inhibition at 5 mg/ml; assay type: functional; settings: read-out: IZ
Bacillus subtilis [22] = assay: Antibacterial activity against Bacillus subtilis assessed as zone of inhibition at 5 mg/ml; assay type: functional; settings: read-out: IZ
Proteus vulgaris = assay: Antibacterial activity against Proteus vulgaris assessed as zone of inhibition at 5 mg/ml; assay type: functional; settings: read-out: IZ
Aspergillus fumigatus [23] = assay: Antifungal activity against Aspergillus fumigatus assessed as zone of inhibition at 5 mg/ml; assay type: functional; settings: read-out: IZ
Escherichia coli [24] = assay: Antibacterial activity against Escherichia coli assessed as zone of inhibition at 5 mg/ml; assay type: functional; settings: read-out: IZ
Candida albicans = assay: Antifungal activity against Candida albicans assessed as zone of inhibition at 5 mg/ml; assay type: functional; settings: read-out: IZ
HepG2 = assay: Cytotoxicity against human HepG2 cells by MTT assay; assay type: functional, cell-based
HCT-116 = assay: Cytotoxicity against human HCT-116 cells by MTT assay; assay type: functional, cell-based
Streptococcus mutans = assay: Antibacterial activity against Streptococcus mutans assessed as zone of inhibition at 5 mg/ml; assay type: functional; settings: read-out: IZ
Aspergillus flavus = assay: Antifungal activity against Aspergillus flavus assessed as zone of inhibition at 5 mg/ml; assay type: functional; settings: read-out: IZ
Staphylococcus aureus [25] = assay: Antibacterial activity against Staphylococcus aureus assessed as zone of inhibition at 5 mg/ml; assay type: functional; settings: read-out: IZ
Klebsiella pneumoniae [26] = assay: Antibacterial activity against Klebsiella pneumoniae strain 13 assessed as bacterial inhibition at 0.5 mg/ml after 3 hrs; assay type: functional; design: scale not given: the % may be the effect or the level left
[27] = Cytotoxicity against human WI-38 cells by MTT assay; assay type: toxicity, cell-based
[28] = molecular target: Cyclin-dependent kinase 1 (Homo sapiens, UniProt P06493); assay: Inhibition of CDK1 (unknown origin)
Chain of Cyclin-dependent kinase 1 (P06493 whole entry): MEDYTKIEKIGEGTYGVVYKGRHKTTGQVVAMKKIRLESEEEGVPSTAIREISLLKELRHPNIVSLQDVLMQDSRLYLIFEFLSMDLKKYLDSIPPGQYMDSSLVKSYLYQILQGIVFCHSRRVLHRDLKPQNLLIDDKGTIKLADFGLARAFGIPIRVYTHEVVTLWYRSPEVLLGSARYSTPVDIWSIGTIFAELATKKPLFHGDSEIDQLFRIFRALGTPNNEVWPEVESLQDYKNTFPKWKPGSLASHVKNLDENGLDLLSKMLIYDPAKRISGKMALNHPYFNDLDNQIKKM

[29] = tested on: Panel NCI-60 (60 carcinoma cell lines); assay: Cytotoxicity against human Panel NCI-60 (60 carcinoma cell lines); assay type: functional; design: concentration or dose not given beside the values
[30] = tested on: Staphylococcus epidermidis; assay: Antibacterial activity against Staphylococcus epidermidis assessed as zone of inhibition; assay type: functional
Salmonella typhimurium = assay: Antibacterial activity against Salmonella typhimurium assessed as zone of inhibition; assay type: functional, Salmonella enterica subsp. enterica serovar Typhimurium
Klebsiella pneumoniae [31] = assay: Antibacterial activity against Klebsiella pneumoniae assessed as zone of inhibition; assay type: functional
Geotrichum candidum = assay: Antifungal activity against Geotrichum candidum assessed as zone of inhibition; assay type: functional
Aspergillus fumigatus [32] = assay: Antifungal activity against Aspergillus fumigatus; assay type: functional

COc1ccc(Nc2nn3c(-c4ccccc4)cc(-c4ccccc4)nc3c2C(N)=O)cc1
MIC (Bacillus subtilis [1]): 3.9 µg/mL (≈ 8.96 µM) | inhibition zone (IZ) (Escherichia coli [2]): 13 mm | MIC (Fusarium oxysporum): 7.81 µg/mL (≈ 17.9 µM) | inhibition zone (IZ) (Bacillus subtilis [3]): 12 mm | MIC (Staphylococcus aureus [4]): 7.81 µg/mL (≈ 17.9 µM) | MIC (Pseudomonas aeruginosa [5]): 15.6 µg/mL (≈ 35.9 µM) | inhibition zone (IZ) (Staphylococcus aureus [6]): 9 mm | MIC (Penicillium chrysogenum): 15.6 µg/mL (≈ 35.9 µM) | MIC (Escherichia coli [7]): 3.9 µg/mL (≈ 8.96 µM) | inhibition zone (IZ) (Pseudomonas aeruginosa [8]): 10 mm

CCOC(=O)c1ncn2c1CN(C)C(=O)c1cc(F)ccc1-2 [FLUMAZENIL]
Activity (Mus musculus [9]): 12.8 | Activity (Mus musculus [10]): 120.08%

Cc1nc2c(c(C)nc3c(C#N)cnn32)c2c1CCO2
inhibition zone (IZ) (Escherichia coli [2]): 16.4 mm | inhibition zone (IZ) (Bacillus subtilis [3]): 14.1 mm | inhibition zone (IZ) (Aspergillus clavatus): 17.7 mm

Cc1cc(NN2C(=O)c3ccccc3C2=O)n2ncc(C#N)c2n1
inhibition zone (IZ) (Candida tropicalis): 17.4 mm

Cc1ccn2ncc(C#N)c2n1
Activity (Fusarium graminearum): 36.4% | Activity (Alternaria solani): 45.1% | Activity (Phomopsis asparagi): 28.7% | Activity [11]: 40.3% | Activity (Mycosphaerella arachidis): 39.6% | Activity [12]: 65.8%

COc1ccc(-c2cc(-c3nn4cc(-c5ccncc5)cnc4c3S(=O)(=O)c3cc(OC)c(OC)c(OC)c3)on2)cc1
IC50 (MCF7): 10 nM | IC50 (SiHa): 180 nM | IC50 (COLO 205): 100 nM | IC50 (A549): 10 nM

O=c1c(Cc2ccccc2)c[nH]c2c(-c3ccccn3)cnn12
Activity (Mus musculus [13]): 145.2% | Ki [14]: 183 nM | Activity (Mus musculus [15]): 15 | Activity (Mus musculus [16]): 113.9% | Activity (Mus musculus [17]): 23.9 | Activity (Mus musculus [18]): 21.3 | Activity (Mus musculus [19]): 28.9 | Activity (Mus musculus [20]): 164.4% | Activity (Mus musculus [21]): 165.4%

Cc1cc(C)nc(NS(=O)(=O)c2ccc(/N=N/c3c(N)nc4c(/N=N/c5ccc(C(F)(F)F)cc5)c(N)nn4c3N)cc2)n1
zone of inhibition at 5000 µg/mL (Enterococcus faecalis): 25 mm | IC50 (MCF7): 4.5 µg/mL | zone of inhibition at 5000 µg/mL (Bacillus subtilis [22]): 13 mm | zone of inhibition at 5000 µg/mL (Proteus vulgaris): 40 mm | zone of inhibition at 5000 µg/mL (Aspergillus fumigatus [23]): 13 mm | zone of inhibition at 5000 µg/mL (Escherichia coli [24]): 13 mm | zone of inhibition at 5000 µg/mL (Candida albicans): 13 mm | IC50 (HepG2): 3.9 µg/mL (≈ 6.23 µM) | IC50 (HCT-116): 2.7 µg/mL | zone of inhibition at 5000 µg/mL (Streptococcus mutans): 13 mm | zone of inhibition at 5000 µg/mL (Aspergillus flavus): 13 mm | zone of inhibition at 5000 µg/mL (Staphylococcus aureus [25]): 13 mm

CCSc1nn2c3c(c(C)nc2c1C#N)Nc1ccccc1C(=O)N3C1CCCCC1
Activity (Klebsiella pneumoniae [26]): 100%

COc1ccc(Nc2nn3c(-c4ccccc4)cc(-c4ccccc4)nc3c2C(N)=O)c(OC)c1
IC50 [27]: 17700 nM | IC50 [28]: 161 nM | Activity [29]: 48.5% | IC50 (HCT-116): 6280 nM

Nc1nn2c(-c3ccc(S(=O)(=O)c4ccccc4)cc3)ccnc2c1/N=N/c1ccccc1Cl
inhibition zone (IZ) (Escherichia coli [2]): 25.7 mm | inhibition zone (IZ) [30]: 22.6 mm | inhibition zone (IZ) (Salmonella typhimurium): 26.2 mm | inhibition zone (IZ) (Klebsiella pneumoniae [31]): 26.6 mm | inhibition zone (IZ) (Geotrichum candidum): 25.2 mm

COc1ccc(Nc2nn3c(N)c(C#N)c(-c4ccccc4)nc3c2C(N)=O)cc1
MIC (Aspergillus fumigatus [32]): 15.6 µg/mL (≈ 39.1 µM)
